Test results from PMC9995496, “A screen for MeCP2-TBL1 interaction inhibitors using a luminescence-based assay” (Scientific Reports, 2023).
Where a name gives a salt, the structure may show the parent alone. Read-outs that look alike come from different tables or passages of the source.

System: PRKACA-PRKAR2A interaction (SmBiT-PRKACA / LgBiT-PRKAR2A), protein kinase A
Design: NanoLuc complementation counter-screen in cell extract, PRKACA with PRKAR2A, loss of luminescence, detects NanoLuc interference
Conditions: 0.5 h, 20 µM, inhibitor
[1] = counter-screen for NanoLuc interference
[2] = counter-screen for NanoLuc interference, Inh (PKA)

Row | SMILES | Inh (PKA) [1] | also measured
1 | OCCOCCN1CCN(C2=Nc3ccccc3Sc3ccccc32)CC1 [UM0142275:01, Quetiapine Fumarate] | 6.997% | 
2 | CCOC(=O)c1ccc(N2NC(=O)/C(=C/c3ccc([N+](=O)[O-])o3)C2=O)cc1 [UM0142276:01, PYR-41] | 36.3% | 
3 | COc1cc2c(cc1-c1c(C)noc1C)ncc1[nH]c(=O)n([C@H](C)c3ccccn3)c12 [UM0142279:01, I-BET151 (GSK1210151A)] | 10.84% | 
4 | C[C@]12CC[C@@H]3c4ccc(O)cc4CC[C@H]3[C@@H]1CC[C@@H]2OC(=O)CCC1CCCC1 [UM0142280:01, Estradiol Cypionate] | 4.433% | 
5 | C=CC[C@]1(O)CC[C@H]2[C@@H]3CCC4=CC(=O)CCC4=C3C=C[C@@]21C [UM0142281:01, Altrenogest] | 7.202% | 
6 | CCCCC(=O)O[C@H]1CC[C@H]2[C@@H]3CCc4cc(O)ccc4[C@H]3CC[C@]12C [UM0142282:01, Estradiol valerate] | 9.885% | 
7 | CC[C@H](c1ccc(O)cc1)[C@@H](CC)c1ccc(O)cc1 [UM0142283:01, Hexestrol] | 49.6% | 
8 | CC(=O)O[C@]1(C(C)=O)CC[C@H]2[C@@H]3C[C@H](C)C4=CC(=O)CC[C@]4(C)[C@H]3CC[C@@]21C [UM0142284:01, Medroxyprogesterone acetate] | 6.658% | 
9 | CC(=O)[C@H]1CC[C@H]2[C@@H]3CC=C4C[C@@H](O)CC[C@]4(C)[C@H]3CC[C@]12C [UM0142285:01, Pregnenolone] | 6.585% | 
10 | C[C@]12CCC3=C4CCC(=O)C=C4CC[C@H]3[C@@H]1CC[C@@]2(O)CC#N [UM0142287:01, Dienogest] | -0.135% | 
11 | C#C[C@]1(O)C=C[C@H]2[C@@H]3CCC4=CC(=O)CC[C@@H]4[C@H]3CC[C@@]21CC [UM0142288:01, Gestodene] | 7.119% | 
12 | CS(=O)(=O)c1cccc(CNc2nc(Nc3ccc4c(c3)CCC(=O)N4)ncc2C(F)(F)F)c1 [UM0142290:01, PF-573228] | 25.03% | 
13 | COc1c(C)c(C(=O)c2ccc(N)c(C(=O)O)c2)n2ccccc12 [UM0142292:01, SSR128129E] | 31.08% | 
14 | CC(C)c1onc(-c2c(Cl)cccc2Cl)c1COc1ccc(/C=C/c2cccc(C(=O)O)c2)c(Cl)c1 [UM0142293:01, GW4064] | 30.87% | 
15 | NCC1(CC(=O)O)CCCCC1 [UM0142295:01, Gabapentin HCl] |  | Inh (PKA) [2]: 0.4431%
16 | COc1ccnc2[nH]cc(C(=O)C(=O)N3CCN(C(=O)c4ccccc4)C[C@H]3C)c12 [UM0142297:01, BMS-378806] | 0.2509% | 
17 | N#Cc1ccc2[nH]c(O)c(-c3ccc(CN4CCOCC4)cn3)c2c1 [UM0142298:01, AZD1080] | 15.47% | 
18 | CC(C)(C)c1ccc(CN2CCN(C(c3ccccc3)c3ccc(Cl)cc3)CC2)cc1 (stereo not drawn) [UM0142302:01, Buclizine HCl] | 2.001% | 
19 | CN/C(=N\CCSCc1nc[nH]c1C)NC#N [UM0142305:01, Cimetidine] | 1.548% | 
20 | Cc1ccc2c(c1)c1c(n2CCc2ccc(C)nc2)CCN(C)C1 [UM0142307:01, Latrepirdine] | 3.431% | 
21 | CN(C)CC/C=C1/c2ccccc2COc2ccc(CC(=O)O)cc21 [UM0142309:01, Olopatadine HCl] | -1.243% | 
22 | CCC(CC)(NC(=O)C(C)C)C(=O)N[C@@H](CCCN=C(N)N)C(=O)NC1(C(=O)NC(c2ccc(F)cc2)c2ccc(F)cc2)CCCC1 [UM0142313:01, MM-102] | 12.23% | 
23 | O=C(c1ccc(Nc2nccc(-c3cc4ccccc4s3)n2)cc1)N1CCC(N2CCCC2)CC1 [UM0142314:01, IKK-16 (IKK Inhibitor VII)] | 16.61% | 

Row | SMILES | Inh (PKA) [1] | also measured
24 | O=C(Nc1cc(C(F)(F)F)cc(C(F)(F)F)c1)c1cc(Cl)ccc1O [UM0142315:01, IMD 0354] | 90.14% | 
25 | C1=N/C2=N/c3ccc(OCCN4CCCC4)c(c3)COC/C=C/COCc3cccc(c3)C(=C1)N2 [UM0142316:01, Pacritinib (SB1518)] | 30.05% | 
26 | Cc1ccc(C(=O)N(CCCN)[C@@H](c2oc3cc(Cl)ccc3c(=O)c2Cc2ccccc2)C(C)C)cc1 [UM0142317:01, SB743921] | 14.68% | 
27 | Nc1nc(N)nc(-c2cc(Cl)ccc2Cl)n1 [UM0142318:01, Irsogladine] | 5.104% | 
28 | C[N+](C)(C)CCOC(=O)CCC(=O)OCC[N+](C)(C)C [UM0142319:01, Succinylcholine Chloride Dihydrate] | -1.734% | 
29 | O=C(O[C@H]1C[N+]2(CCCOc3ccccc3)CCC1CC2)C(O)(c1cccs1)c1cccs1 [UM0142325:01, Aclidinium Bromide] | 1.77% | 
30 | C[N+]1(C)[C@@H]2C[C@@H](OC(=O)[C@H](CO)c3ccccc3)C[C@H]1[C@@H]1O[C@@H]12 [UM0142326:01, Methscopolamine] | 1.249% | 
31 | COc1cc(OC)c(NC(=O)Nc2cc(C)on2)cc1Cl [UM0142328:01, PNU-120596] | 15.14% | 
32 | Cn1c(=O)c(F)c(Nc2ccc(I)cc2F)c2c(=O)n(C[C@@H](O)CO)cnc21 [UM0142329:01, TAK-733] | 15.12% | 
33 | Cc1cc(Nc2ccc(NC(=O)c3ccc(Nc4ccnc5ccccc45)cc3)cc2)nc(N)n1 [UM0142330:01, SGI-1027] | 9.462% | 
34 | c1cncc(CN2CCC(n3ncc4c(N5CCOCC5)nc(-c5ccc6[nH]ccc6c5)nc43)CC2)c1 [UM0142335:01, WAY-600] | 7.744% | 
35 | CNC(=O)Nc1ccc(-c2nc(N3CC4CCC(C3)O4)c3cnn(C4CCC5(CC4)OCCO5)c3n2)cc1 [UM0142336:01, WYE-125132 (WYE-132)] | 31.62% | 
36 | Cc1ccc(NCCCc2ccccc2)c(N)c1 [UM0142338:01, JSH-23] | 14.43% | 
37 | Nc1c(CC(=O)O)cccc1C(=O)c1ccccc1 [UM0142341:01, Amfenac Sodium Monohydrate] | 3.127% | 
38 | Nc1c(CC(=O)O)cccc1C(=O)c1ccc(Br)cc1 [UM0142342:01, Bromfenac Sodium] | 5.05% | 
39 | CC(C(=O)O)c1ccc2c(c1)[nH]c1ccc(Cl)cc12 (stereo not drawn) [UM0142344:01, Carprofen] | 82.74% | 
40 | CO/N=C(\C(=O)N[C@@H]1C(=O)N2C(C(=O)O)=C(CSc3nc(=O)c(O)nn3C)CS[C@H]12)c1csc(N)n1 [UM0142345:01, Ceftriaxone Sodium Trihydrate] | 3.455% | 
41 | Cc1c(O)c(=O)ccn1C [UM0142352:01, Deferiprone] | 0.006466% | 
42 | CN(C)CCOC(C)(c1ccccc1)c1ccccn1 (stereo not drawn) [UM0142354:01, Doxylamine Succinate] | 1.104% | 
43 | CCOC(CN1CCN(CC(C)C(=O)c2ccccc2)CC1)c1ccccc1 (stereo not drawn) [UM0142356:01, Eprazinone 2HCl] | 5.222% | 
44 | NCCc1c[nH]cn1 [UM0142362:01, Histamine Phosphate] |  | Inh (PKA) [2]: -0.9808%
45 | O=C(O)Cc1ccccc1Nc1c(Cl)cccc1Cl [UM0142393:01, Diclofenac Diethylamine] |  | Inh (PKA) [2]: 11.28%
46 | O=C(Oc1ccc([N+](=O)[O-])cc1)N1CCC(C(O)(c2ccc3c(c2)OCO3)c2ccc3c(c2)OCO3)CC1 [UM0142396:01, JZL184] |  | Inh (PKA): 16.72%

Further lines, with some results ahead:

Row | Inh (PKA) [1] | SMILES | also measured
47 | 6.18% | COC(=O)Nc1nc2cc(C(=O)c3ccc(F)cc3)ccc2[nH]1 [UM0142358:01, Flubendazole] | 
48 | 7.218% | CCC(=O)O[C@]1(C(=O)CCl)[C@@H](C)C[C@H]2[C@@H]3C[C@H](F)C4=CC(=O)C=C[C@]4(C)[C@@]3(F)[C@@H](O)C[C@@]21C [UM0142361:01, Halobetasol Propionate] | 
49 | 1.018% | CCCCCN(C)CCC(O)(P(=O)(O)O)P(=O)(O)O [UM0142363:01, Ibandronate sodium] | 
50 | -0.438% | CC(C)CC(N)=O [UM0142364:01, Isovaleramide] | 
51 | 5.155% | CN(C)c1ccc(O)c2c1C[C@H]1C[C@H]3[C@H](N(C)C)C(O)=C(C(N)=O)C(=O)[C@@]3(O)C(O)=C1C2=O [UM0142369:01, Minocycline HCl] | 
52 | 1.127% | NC[C@@H]1O[C@H](O[C@H]2[C@@H](O)[C@H](O[C@@H]3[C@@H](O)[C@H](N)C[C@H](N)[C@H]3O[C@H]3O[C@H](CN)[C@@H](O)[C@H](O)[C@H]3N)O[C@@H]2CO)[C@H](N)[C@@H](O)[C@@H]1O [UM0142371:01, Neomycin sulfate] | 
53 | -0.6216% | CCN[C@@H]1C[C@H](N)[C@@H](O[C@H]2OC(CN)=CC[C@H]2N)[C@H](O)[C@H]1O[C@H]1OC[C@](C)(O)[C@H](NC)[C@H]1O [UM0142372:01, Netilmicin Sulfate] | 
54 | 0.5953% | CC[C@@H]1/C=C(\C)C[C@H](C)C[C@H](OC)[C@H]2O[C@@](O)(C(=O)C(=O)N3CCCC[C@H]3C(=O)O[C@H](/C(C)=C/[C@@H]3CC[C@H](Cl)[C@H](OC)C3)[C@H](C)[C@@H](O)CC1=O)[C@H](C)C[C@@H]2OC [UM0142376:01, Pimecrolimus] | 
55 | 0.7107% | Nc1ccc2cc3ccc(N)cc3nc2c1 [UM0142377:01, Proflavine Hemisulfate] | 
56 | 35.19% | NC[C@H]1O[C@H](O[C@H]2[C@H](O[C@@H]3O[C@H](CO)[C@@H](O)[C@H]3O)[C@@H](O)[C@H](N)C[C@@H]2N)[C@H](N)[C@@H](O)[C@@H]1O [UM0142378:01, Ribostamycin Sulfate] | 
57 | -1.099% | Cc1ccc(C(=O)C(C)CN2CCCCC2)cc1 (stereo not drawn) [UM0142383:01, Tolperisone HCl] | 
58 | 2.588% | NC[C@H]1CC[C@H](C(=O)O)CC1 [UM0142384:01, Tranexamic Acid] | 
59 | 2.774% | CCC[S+]([O-])c1ccc2[nH]c(NC(=O)OC)nc2c1 (stereo not drawn) [UM0142387:01, Albendazole Oxide] | 
60 | 3.519% | C=CCNC(N)=S [UM0142388:01, Allylthiourea] | 
61 | 1.229% | Oc1ccc(OC2CCCCO2)cc1 (stereo not drawn) [UM0142392:01, Deoxyarbutin] | 
62 | 19.47% | C[C@]12CC[C@@H]3c4ccc(OC(=O)c5ccccc5)cc4CC[C@H]3[C@@H]1CC[C@@H]2O [UM0142395:01, Estradiol Benzoate] | 
63 | 1.975% | CN(C)C(=N)NC(=N)N [UM0142397:01, Metformin HCl] | 
